Source: article PMC7087588 (Monatshefte Fur Chemie, 2019)
“Also recorded” adds a separate entry of the source.

Key:
[1] = test system: variety of DNA and RNA viruses; assay type: cell-based
[2] = test system: Punta Toro virus, yellow fever virus or Sindbis virus; assay type: cell-based

Compound | antiviral activity (in words) [1] | antiviral activity (in words) [2]
O=C(NN1C(=O)CSC12CCCC2)c1[nH]c2ccc(Cl)cc2c1-c1ccccc1 [Compound 4a, 5-Chloro-N-(3-oxo-1-thia-4-azaspiro[4.4]nonan-4-yl)-3-phenyl-1H-indole-2-carboxamide] | no antiviral activity | 
O=C(NN1C(=O)CSC12CCCCC2)c1[nH]c2ccc(Cl)cc2c1-c1ccccc1 [Compound 4b, 5-Chloro-N-(3-oxo-1-thia-4-azaspiro[4.5]decan-4-yl)-3-phenyl-1H-indole-2-carboxamide] |  | moderately active; also recorded: inhibitory effect
CC1CCCC2(C1)SCC(=O)N2NC(=O)c1[nH]c2ccc(Cl)cc2c1-c1ccccc1 (stereo not drawn) [Compound 4c, 5-Chloro-N-(7-methyl-3-oxo-1-thia-4-azaspiro[4.5]decan-4-yl)-3-phenyl-1H-indole-2-carboxamide] |  | moderately active; also recorded: inhibitory effect
CC1SC2(CCCC2)N(NC(=O)c2[nH]c3ccc(Cl)cc3c2-c2ccccc2)C1=O (stereo not drawn) [Compound 5a, 5-Chloro-N-(2-methyl-3-oxo-1-thia-4-azaspiro[4.4]nonan-4-yl)-3-phenyl-1H-indole-2-carboxamide] | no antiviral activity | 
CC1SC2(CCCCC2)N(NC(=O)c2[nH]c3ccc(Cl)cc3c2-c2ccccc2)C1=O (stereo not drawn) [Compound 5b, 5-Chloro-N-(2-methyl-3-oxo-1-thia-4-azaspiro[4.5]decan-4-yl)-3-phenyl-1H-indole-2-carboxamide] |  | moderately active; also recorded: inhibitory effect
CC1CCC2(CC1)SC(C)C(=O)N2NC(=O)c1[nH]c2ccc(Cl)cc2c1-c1ccccc1 (stereo not drawn) [Compound 5d, 5-Chloro-N-(2,8-dimethyl-3-oxo-1-thia-4-azaspiro[4.5]decan-4-yl)-3-phenyl-1H-indole-2-carboxamide] |  | moderately active; also recorded: inhibitory effect
